Experiment: method code SF-AS, from DOI: 10.1016/0021-9673(94)85294-4

| Compound | logP |
| --- | --- |
| CCNC(=O)c1cc2ccccc2[nH]1 | 2.32 |
| CCCNC(=O)c1cc2ccccc2o1 | 2.65 |
| CCOC(=O)c1ccc[nH]1 | 1.73 |
| CCNC(=O)c1ccccc1 | 1.28 |
| CCCOC(=O)c1ccoc1 | 2.36 |
| CCOC(=O)c1cc2ccccc2o1 | 3.05 |
| COC(=O)c1cc2ccccc2[nH]1 | 2.78 |
| NC(=O)c1ccc[nH]1 | 0.09 |
| CCNC(=O)c1cc2ccccc2o1 | 2.22 |
| Cn1cccc1C(N)=O | 0.45 |
| NC(=O)c1cc2ccccc2o1 | 1.54 |
| CCCNC(=O)c1ccccc1 | 1.72 |
| CNC(=O)c1ccc[nH]1 | 0.42 |
| CNC(=O)c1cc2ccccc2[nH]1 | 1.9 |
| CCCNC(=O)c1ccc[nH]1 | 1.25 |
| CNC(=O)c1c[nH]c2ccccc12 | 1.25 |
| CCCNC(=O)c1cc2ccccc2[nH]1 | 2.8 |
| CCCNC(=O)c1ccco1 | 1.1 |
| CCNC(=O)c1c[nH]c2ccccc12 | 1.62 |

The next lines start with the values.

| logP | Compound |
| --- | --- |
| 1.2 | CCCNC(=O)c1ccoc1 |
| 1.63 | CCCNC(=O)c1cccn1C |
| 1.61 | NC(=O)c1cc2ccccc2[nH]1 |
| 1.8 | COC(=O)c1cccn1C |
| 1.09 | CCNC(=O)c1cccn1C |
| 0.8 | CCNC(=O)c1ccc[nH]1 |
| 0.71 | CNC(=O)c1cccn1C |
| 1.85 | CNC(=O)c1cc2ccccc2o1 |
